Test results reported in ChEMBL document CHEMBL4393714, “Multi-targeting protein-protein interaction inhibitors: Evolution of macrocyclic ligands with embedded carbohydrates (MECs) to improve selectivity” (Eur J Med Chem, 2019).

Legend:
[1] = target: 5-hydroxytryptamine receptor 2B (Homo sapiens, UniProt P41595); test: Antagonist activity at human recombinant 5-HT2B receptor in CHOK1 cells measured after 30 mins by HTRF assay; assay type: cell-based
[2] = Displacement of [3H] batrachotoxinin from rat sodium channel site 2 measured after 60 mins by scintillation counter method
[3] = target: T1, 5-hydroxytryptamine receptor 1A (Homo sapiens, UniProt P08908); test: Displacement of [3H]OH-DPAT from human recombinant 5-HT1A receptor measured after 60 mins by scintillation counter method
T1 sequence (P08908 whole entry): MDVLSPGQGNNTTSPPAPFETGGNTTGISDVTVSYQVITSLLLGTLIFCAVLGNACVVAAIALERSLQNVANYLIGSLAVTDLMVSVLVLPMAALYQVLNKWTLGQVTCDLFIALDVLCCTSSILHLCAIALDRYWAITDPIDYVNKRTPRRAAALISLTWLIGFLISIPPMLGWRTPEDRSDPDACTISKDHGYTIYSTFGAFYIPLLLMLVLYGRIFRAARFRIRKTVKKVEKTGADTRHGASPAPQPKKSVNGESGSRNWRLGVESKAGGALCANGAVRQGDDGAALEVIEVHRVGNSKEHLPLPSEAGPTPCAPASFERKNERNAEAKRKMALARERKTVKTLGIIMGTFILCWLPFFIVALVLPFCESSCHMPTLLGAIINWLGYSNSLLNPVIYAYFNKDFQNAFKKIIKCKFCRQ

[4] = target: Sodium-dependent serotonin transporter (Homo sapiens, UniProt P31645); test: Displacement of [3H] imipramine from human recombinant 5-HT transporter measured after 60 mins by scintillation counter method
Sequence of Sodium-dependent serotonin transporter (P31645 whole entry): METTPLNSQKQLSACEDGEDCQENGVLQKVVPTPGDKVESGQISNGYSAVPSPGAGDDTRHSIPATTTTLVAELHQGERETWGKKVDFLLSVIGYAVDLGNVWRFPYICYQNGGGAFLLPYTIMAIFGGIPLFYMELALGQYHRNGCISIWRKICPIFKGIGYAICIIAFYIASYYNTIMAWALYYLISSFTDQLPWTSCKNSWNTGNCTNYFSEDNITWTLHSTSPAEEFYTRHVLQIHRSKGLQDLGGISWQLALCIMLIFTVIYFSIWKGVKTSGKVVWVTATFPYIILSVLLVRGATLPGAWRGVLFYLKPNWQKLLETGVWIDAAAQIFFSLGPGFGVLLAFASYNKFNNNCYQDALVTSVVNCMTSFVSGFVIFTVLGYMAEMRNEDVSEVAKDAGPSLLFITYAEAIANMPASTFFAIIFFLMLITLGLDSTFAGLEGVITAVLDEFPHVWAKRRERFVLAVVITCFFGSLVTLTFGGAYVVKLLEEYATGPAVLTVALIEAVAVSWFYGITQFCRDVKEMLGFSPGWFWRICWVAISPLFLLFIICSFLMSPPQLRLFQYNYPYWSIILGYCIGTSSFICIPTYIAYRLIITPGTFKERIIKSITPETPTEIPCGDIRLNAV

[5] = target: 5-hydroxytryptamine receptor 2A (Homo sapiens, UniProt P28223); test: Displacement of [3H] ketanserin from human recombinant 5-HT2A receptor measured after 60 mins by scintillation counter method
Sequence of 5-hydroxytryptamine receptor 2A (P28223 whole entry): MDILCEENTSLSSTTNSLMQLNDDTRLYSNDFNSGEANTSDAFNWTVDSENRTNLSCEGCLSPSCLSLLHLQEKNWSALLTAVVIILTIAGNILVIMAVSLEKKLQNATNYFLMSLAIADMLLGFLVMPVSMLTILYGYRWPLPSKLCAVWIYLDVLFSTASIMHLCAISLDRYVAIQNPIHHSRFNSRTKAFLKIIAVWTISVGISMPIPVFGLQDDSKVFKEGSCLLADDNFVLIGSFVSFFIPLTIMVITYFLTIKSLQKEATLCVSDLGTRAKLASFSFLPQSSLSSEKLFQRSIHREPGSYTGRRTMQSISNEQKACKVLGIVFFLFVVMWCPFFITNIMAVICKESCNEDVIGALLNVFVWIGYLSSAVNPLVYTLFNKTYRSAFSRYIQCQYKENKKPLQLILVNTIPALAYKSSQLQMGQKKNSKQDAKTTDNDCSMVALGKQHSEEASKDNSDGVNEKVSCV

Substance-K receptor = target: T2, Substance-K receptor (Homo sapiens, UniProt P21452); test: Displacement of [125I]NKA from human recombinant NK2 receptor measured after 60 mins by scintillation counter method
T2 sequence (P21452 whole entry): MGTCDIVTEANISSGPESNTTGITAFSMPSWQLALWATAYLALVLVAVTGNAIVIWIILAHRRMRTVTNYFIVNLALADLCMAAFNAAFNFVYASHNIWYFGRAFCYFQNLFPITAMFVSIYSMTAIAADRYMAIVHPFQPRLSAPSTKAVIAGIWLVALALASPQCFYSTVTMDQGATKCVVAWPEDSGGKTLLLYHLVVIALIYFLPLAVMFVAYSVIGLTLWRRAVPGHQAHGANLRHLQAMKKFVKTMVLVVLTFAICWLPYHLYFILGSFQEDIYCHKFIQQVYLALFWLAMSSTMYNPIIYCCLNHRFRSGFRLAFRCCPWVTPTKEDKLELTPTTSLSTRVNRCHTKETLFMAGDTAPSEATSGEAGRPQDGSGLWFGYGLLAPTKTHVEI

Sequence of 5-hydroxytryptamine receptor 2B (P41595 whole entry): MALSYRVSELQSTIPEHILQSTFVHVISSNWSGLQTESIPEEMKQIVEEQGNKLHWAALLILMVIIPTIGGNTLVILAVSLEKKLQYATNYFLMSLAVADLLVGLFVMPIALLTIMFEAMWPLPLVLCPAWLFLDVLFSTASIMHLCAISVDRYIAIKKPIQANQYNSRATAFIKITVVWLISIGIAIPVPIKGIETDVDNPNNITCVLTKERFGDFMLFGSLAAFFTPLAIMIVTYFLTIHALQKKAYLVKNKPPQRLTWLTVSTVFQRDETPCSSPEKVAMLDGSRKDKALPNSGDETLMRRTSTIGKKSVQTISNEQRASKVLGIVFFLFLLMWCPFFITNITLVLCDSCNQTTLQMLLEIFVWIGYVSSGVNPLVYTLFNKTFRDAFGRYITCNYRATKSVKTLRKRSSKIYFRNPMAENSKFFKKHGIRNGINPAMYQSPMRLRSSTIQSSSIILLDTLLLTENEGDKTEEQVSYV

| SMILES | IC50 [1] [µM] | Ki [1] [µM] | IC50 [2] [µM] | Ki [2] [µM] | IC50 [3] [µM] | Ki [3] [µM] | IC50 [4] [µM] | Ki [4] [µM] | IC50 [5] [µM] | Ki [5] [µM] | IC50 (Substance-K receptor) [µM] | Ki (Substance-K receptor) [µM] |
| --- | --- | --- | --- | --- | --- | --- | --- | --- | --- | --- | --- | --- |
| CN1C[C@@H](NS(=O)(=O)N(C)C)C[C@@H]2c3cccc4c3c(cn4C)C[C@H]21 [MESULERGINE] | 0.0052 | 0.0028 |  |  |  |  |  |  |  |  |  |  |
| COc1ccc(C(=O)O[C@H]2CC[C@@]3(C)[C@@H]4CC[C@H]5[C@]6(O)C[C@H](O)[C@@]7(O)[C@@H](CN8C[C@@H](C)CC[C@H]8[C@@]7(C)O)[C@]6(O)C[C@@]53O[C@]24O)cc1OC [VERATRIDINE] |  |  | 8.9 | 8.1 |  |  |  |  |  |  |  |  |
| CC(C)CCO[C@@H]1[C@H]2OC(C)(C)O[C@H]2[C@H]2COCc3cn(nn3)C[C@H]3O[C@H](CCN(CCc4ccc5ccccc5c4)CC[C@H]1O2)[C@H](OCCC(C)C)[C@H]1OC(C)(C)O[C@H]13 | 15 | 8.2 | 0.46 | 0.41 | 0.68 | 0.42 | > 100 | > 100 | 8.7 | 4.7 | 3 | 1.6 |
